Assay results published in PMC10004634 (PLOS ONE, 2023).
Like-named read-outs stand apart in the source and are kept apart here.

Legend:
Assay in all cases: biochemical
Design in all cases: KINOMEscan scanMAX competition binding, DNA-tagged kinases, qPCR read-out, percent control at 300 nM
[1] = biological target: T1, HUNK (Homo sapiens, UniProt P57058)
T1 sequence (P57058 1-714): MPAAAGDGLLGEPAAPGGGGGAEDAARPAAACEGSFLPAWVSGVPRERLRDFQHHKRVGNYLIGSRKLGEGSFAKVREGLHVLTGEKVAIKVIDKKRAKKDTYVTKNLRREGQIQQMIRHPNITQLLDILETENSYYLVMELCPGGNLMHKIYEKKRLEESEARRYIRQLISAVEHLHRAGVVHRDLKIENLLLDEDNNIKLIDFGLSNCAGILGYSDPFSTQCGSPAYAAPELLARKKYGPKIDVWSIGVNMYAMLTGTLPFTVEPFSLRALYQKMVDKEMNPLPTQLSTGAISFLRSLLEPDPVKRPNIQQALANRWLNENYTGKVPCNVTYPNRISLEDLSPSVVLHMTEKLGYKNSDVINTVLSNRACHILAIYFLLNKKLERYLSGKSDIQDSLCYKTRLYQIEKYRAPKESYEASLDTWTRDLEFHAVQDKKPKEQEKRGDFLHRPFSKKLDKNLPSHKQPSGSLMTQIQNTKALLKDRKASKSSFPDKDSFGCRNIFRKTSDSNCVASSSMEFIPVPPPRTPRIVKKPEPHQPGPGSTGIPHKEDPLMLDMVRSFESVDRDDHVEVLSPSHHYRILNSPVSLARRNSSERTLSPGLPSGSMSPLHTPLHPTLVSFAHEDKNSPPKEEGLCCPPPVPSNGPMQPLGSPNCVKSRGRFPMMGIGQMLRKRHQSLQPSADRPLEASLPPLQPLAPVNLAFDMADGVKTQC

[2] = biological target: FLT3(D835H) (Homo sapiens, UniProt P36888, D835H)
[3] = biological target: FGFR3(G697C) (Homo sapiens, UniProt P22607, G697C)
[4] = biological target: BMPR1A (Homo sapiens, UniProt P36894)
[5] = biological target: T2, DRAK2 (Homo sapiens, UniProt O94768)
T2 construct: gene STK17B
T2 sequence (O94768 whole entry): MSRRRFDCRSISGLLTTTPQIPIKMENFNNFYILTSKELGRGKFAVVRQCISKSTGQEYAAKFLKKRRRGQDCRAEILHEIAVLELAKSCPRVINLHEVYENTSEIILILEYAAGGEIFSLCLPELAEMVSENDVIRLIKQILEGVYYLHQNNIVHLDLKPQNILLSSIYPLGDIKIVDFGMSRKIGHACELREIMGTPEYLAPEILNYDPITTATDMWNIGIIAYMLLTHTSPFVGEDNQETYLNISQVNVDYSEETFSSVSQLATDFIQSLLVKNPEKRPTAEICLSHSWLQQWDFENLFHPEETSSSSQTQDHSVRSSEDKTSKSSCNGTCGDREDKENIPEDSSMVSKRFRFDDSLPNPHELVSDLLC

[6] = biological target: NEK1 (Homo sapiens, UniProt Q96PY6)
NEK1, sequence (Q96PY6 whole entry): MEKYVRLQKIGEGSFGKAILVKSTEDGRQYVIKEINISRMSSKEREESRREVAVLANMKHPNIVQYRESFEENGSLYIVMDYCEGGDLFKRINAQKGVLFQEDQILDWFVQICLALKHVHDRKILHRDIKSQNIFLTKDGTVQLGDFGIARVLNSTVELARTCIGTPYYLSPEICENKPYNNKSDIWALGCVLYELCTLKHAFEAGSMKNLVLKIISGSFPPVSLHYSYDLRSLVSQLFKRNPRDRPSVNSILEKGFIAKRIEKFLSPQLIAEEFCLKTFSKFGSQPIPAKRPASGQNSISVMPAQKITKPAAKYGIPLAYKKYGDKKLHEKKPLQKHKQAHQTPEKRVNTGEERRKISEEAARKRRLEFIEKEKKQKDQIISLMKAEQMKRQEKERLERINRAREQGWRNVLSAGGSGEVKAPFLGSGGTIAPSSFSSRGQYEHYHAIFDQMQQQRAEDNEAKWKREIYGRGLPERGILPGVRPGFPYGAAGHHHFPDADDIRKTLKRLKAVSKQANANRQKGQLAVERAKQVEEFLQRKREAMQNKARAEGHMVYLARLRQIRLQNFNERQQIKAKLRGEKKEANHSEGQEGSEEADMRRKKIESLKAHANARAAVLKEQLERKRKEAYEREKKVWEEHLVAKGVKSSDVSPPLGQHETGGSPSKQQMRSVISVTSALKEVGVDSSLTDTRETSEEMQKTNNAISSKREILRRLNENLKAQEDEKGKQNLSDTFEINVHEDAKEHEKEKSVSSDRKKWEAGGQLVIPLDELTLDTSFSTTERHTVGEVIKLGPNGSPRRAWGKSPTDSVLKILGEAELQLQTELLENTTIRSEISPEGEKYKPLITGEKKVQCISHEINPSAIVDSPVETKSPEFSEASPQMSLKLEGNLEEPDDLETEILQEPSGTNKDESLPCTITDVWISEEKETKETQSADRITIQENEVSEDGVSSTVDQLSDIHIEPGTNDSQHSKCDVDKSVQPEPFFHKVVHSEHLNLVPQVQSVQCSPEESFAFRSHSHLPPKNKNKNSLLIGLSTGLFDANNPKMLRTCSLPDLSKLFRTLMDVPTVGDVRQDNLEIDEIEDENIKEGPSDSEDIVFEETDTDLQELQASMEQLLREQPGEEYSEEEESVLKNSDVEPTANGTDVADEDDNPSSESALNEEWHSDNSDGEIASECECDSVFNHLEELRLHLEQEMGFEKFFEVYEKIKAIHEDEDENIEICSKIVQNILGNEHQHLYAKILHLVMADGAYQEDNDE

[7] = biological target: CDK8 (Homo sapiens, UniProt P49336)
CDK8, sequence (P49336 whole entry): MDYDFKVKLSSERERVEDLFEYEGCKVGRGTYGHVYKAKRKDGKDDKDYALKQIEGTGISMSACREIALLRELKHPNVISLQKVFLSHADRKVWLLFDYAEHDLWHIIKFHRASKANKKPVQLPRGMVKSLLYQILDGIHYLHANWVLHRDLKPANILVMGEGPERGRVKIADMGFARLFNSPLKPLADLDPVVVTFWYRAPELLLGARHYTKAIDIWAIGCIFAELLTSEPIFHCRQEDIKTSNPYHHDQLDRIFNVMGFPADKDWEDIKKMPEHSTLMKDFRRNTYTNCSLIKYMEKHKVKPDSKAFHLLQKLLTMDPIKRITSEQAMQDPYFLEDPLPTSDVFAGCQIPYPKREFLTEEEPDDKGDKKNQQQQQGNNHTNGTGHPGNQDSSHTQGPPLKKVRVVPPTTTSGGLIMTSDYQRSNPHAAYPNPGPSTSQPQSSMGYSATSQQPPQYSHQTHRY

[8] = biological target: NLK (Homo sapiens, UniProt Q9UBE8)
[9] = biological target: T3, FAK (Homo sapiens, UniProt Q05397)
T3 construct: gene PTK2
T3 sequence (Q05397 whole entry): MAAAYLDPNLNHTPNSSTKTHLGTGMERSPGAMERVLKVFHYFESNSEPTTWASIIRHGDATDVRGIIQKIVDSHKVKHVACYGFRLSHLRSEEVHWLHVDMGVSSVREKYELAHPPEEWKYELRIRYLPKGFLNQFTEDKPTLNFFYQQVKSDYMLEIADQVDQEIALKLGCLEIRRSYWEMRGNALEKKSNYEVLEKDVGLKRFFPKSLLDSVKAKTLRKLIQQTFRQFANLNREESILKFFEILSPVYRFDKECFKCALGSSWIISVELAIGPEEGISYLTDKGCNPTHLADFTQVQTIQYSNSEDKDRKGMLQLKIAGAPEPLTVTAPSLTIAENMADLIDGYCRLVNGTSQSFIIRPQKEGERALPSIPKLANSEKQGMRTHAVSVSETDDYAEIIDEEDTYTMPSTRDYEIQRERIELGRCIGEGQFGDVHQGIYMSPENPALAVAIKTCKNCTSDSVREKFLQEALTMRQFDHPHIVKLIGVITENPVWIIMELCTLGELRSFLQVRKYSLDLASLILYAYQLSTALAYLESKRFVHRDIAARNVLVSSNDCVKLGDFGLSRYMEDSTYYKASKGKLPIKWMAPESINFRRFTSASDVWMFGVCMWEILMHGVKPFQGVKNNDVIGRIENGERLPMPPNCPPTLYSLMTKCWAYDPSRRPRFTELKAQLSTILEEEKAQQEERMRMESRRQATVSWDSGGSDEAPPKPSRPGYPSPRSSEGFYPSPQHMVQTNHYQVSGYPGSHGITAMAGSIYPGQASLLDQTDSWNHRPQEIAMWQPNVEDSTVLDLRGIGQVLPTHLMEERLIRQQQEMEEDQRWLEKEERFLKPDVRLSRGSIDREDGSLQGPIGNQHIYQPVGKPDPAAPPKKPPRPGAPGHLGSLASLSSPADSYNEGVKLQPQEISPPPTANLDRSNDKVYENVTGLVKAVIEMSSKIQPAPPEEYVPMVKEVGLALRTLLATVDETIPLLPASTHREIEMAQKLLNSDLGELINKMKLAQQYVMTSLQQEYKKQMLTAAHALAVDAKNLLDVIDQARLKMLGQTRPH

[10] = biological target: T4, PIP5K2B (Homo sapiens, UniProt P78356)
T4 construct: gene PIP4K2B
T4 sequence (P78356 whole entry): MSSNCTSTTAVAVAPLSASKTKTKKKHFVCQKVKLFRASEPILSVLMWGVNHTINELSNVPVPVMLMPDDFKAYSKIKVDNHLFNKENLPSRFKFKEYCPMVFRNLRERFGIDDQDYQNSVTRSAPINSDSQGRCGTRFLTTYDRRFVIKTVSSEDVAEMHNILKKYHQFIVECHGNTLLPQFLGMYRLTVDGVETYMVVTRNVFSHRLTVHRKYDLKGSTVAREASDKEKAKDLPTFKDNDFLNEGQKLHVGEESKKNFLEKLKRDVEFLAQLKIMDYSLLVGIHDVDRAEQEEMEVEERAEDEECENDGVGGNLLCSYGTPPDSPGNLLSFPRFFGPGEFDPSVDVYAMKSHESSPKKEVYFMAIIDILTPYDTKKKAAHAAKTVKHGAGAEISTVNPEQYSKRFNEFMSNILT

[11] = biological target: PRKD1 (Homo sapiens, UniProt Q15139)
[12] = biological target: PIK3CA(H1047L) (Homo sapiens, UniProt P42336, H1047L)
[13] = biological target: ACVR2B (Homo sapiens, UniProt Q13705)
ACVR2B, sequence (Q13705 whole entry): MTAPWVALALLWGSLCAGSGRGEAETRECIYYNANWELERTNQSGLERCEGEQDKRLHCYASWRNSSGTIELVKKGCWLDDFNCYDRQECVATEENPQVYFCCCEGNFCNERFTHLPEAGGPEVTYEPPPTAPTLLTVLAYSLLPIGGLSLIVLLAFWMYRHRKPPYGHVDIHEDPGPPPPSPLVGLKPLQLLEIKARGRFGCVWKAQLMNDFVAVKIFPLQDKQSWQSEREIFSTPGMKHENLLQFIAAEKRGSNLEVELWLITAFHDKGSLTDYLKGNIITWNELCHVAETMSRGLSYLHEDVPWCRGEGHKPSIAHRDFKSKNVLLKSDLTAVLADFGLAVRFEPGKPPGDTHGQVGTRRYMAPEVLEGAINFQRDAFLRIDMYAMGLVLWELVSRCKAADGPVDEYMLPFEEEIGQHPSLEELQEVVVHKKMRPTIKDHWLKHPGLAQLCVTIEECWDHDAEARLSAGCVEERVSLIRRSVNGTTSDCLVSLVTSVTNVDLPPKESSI

[14] = biological target: DAPK1 (Homo sapiens, UniProt P53355)
[15] = biological target: EPHB1 (Homo sapiens, UniProt P54762)
[16] = biological target: T5, CTK (Homo sapiens, UniProt P42679)
T5 construct: gene MATK

[17] = biological target: ULK3 (Homo sapiens, UniProt Q6PHR2)
ULK3, sequence (Q6PHR2 whole entry): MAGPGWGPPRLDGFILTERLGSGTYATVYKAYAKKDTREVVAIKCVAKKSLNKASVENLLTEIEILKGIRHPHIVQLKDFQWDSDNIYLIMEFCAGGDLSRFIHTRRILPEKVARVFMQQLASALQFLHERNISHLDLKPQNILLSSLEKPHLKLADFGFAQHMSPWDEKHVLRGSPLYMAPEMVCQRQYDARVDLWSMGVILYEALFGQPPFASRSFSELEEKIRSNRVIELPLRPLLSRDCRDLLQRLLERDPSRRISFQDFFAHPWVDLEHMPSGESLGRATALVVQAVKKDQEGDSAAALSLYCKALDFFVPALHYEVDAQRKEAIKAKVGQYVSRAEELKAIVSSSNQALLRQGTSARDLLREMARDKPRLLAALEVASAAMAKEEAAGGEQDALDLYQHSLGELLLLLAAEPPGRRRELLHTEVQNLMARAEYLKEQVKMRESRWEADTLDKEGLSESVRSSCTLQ

[18] = biological target: IGF1R (Homo sapiens, UniProt P08069)
[19] = read-out: Percent control / Tirabrutinib
[20] = read-out: Percent control / Ibrutinib
[21] = read-out: Percent control / Zanubrutinib
[22] = read-out: Percent control / Acalabrutinib

With `CC#CC(=O)N1CC[C@@H](n2c(=O)n(-c3ccc(Oc4ccccc4)cc3)c3c(N)ncnc32)C1` [Tirabrutinib] the remaining binding at 0.3 µM [1, 19] was 11% and the remaining binding at 0.3 µM [2, 19] was 95%.

`C=CC(=O)N1CCC[C@@H](n2nc(-c3ccc(Oc4ccccc4)cc3)c3c(N)ncnc32)C1` [Ibrutinib] was tested, and the remaining binding at 0.3 µM [1, 20] was 9%, the remaining binding at 0.3 µM [3, 20] was 77% and the remaining binding at 0.3 µM [4, 20] was 99%. It also gave a remaining binding at 0.3 µM [5, 20] of 82%, a remaining binding at 0.3 µM [6, 20] of 96% and a remaining binding at 0.3 µM [2, 20] of 25%.

`C=CC(=O)N1CCC([C@@H]2CCNc3c(C(N)=O)c(-c4ccc(Oc5ccccc5)cc4)nn32)CC1` [Zanubrutinib] gave a remaining binding at 0.3 µM [7, 21] of 100%, a remaining binding at 0.3 µM [8, 21] of 80% and a remaining binding at 0.3 µM [9, 21] of 100%. For the same molecule, the remaining binding at 0.3 µM [10, 21] was 88%, the remaining binding at 0.3 µM [11, 21] was 82% and the remaining binding at 0.3 µM [12, 21] was 100%. For the same molecule, the remaining binding at 0.3 µM [13, 21] was 91%, the remaining binding at 0.3 µM [14, 21] was 87% and the remaining binding at 0.3 µM [15, 21] was 96%. The remaining binding at 0.3 µM [16, 21] was 98%, the remaining binding at 0.3 µM [17, 21] was 82% and the remaining binding at 0.3 µM [4, 21] was 90%. For the same molecule, the remaining binding at 0.3 µM [6, 21] was 54% and the remaining binding at 0.3 µM [18, 21] was 96%.

`CC#CC(=O)N1CCC[C@H]1c1nc(-c2ccc(C(=O)Nc3ccccn3)cc2)c2c(N)nccn12` [Acalabrutinib] gave a remaining binding at 0.3 µM [7, 22] of 93%, a remaining binding at 0.3 µM [8, 22] of 78% and a remaining binding at 0.3 µM [9, 22] of 79%. The remaining binding at 0.3 µM [10, 22] was 93%, the remaining binding at 0.3 µM [11, 22] was 95% and the remaining binding at 0.3 µM [12, 22] was 90%. The remaining binding at 0.3 µM [13, 22] was 85%, the remaining binding at 0.3 µM [3, 22] was 79% and the remaining binding at 0.3 µM [14, 22] was 94%. The remaining binding at 0.3 µM [15, 22] was 93%, the remaining binding at 0.3 µM [16, 22] was 97% and the remaining binding at 0.3 µM [17, 22] was 91%. The remaining binding at 0.3 µM [5, 22] was 97% and the remaining binding at 0.3 µM [18, 22] was 91%.
